Measurements: US9067898B1, “Isothiazole derivatives as GPR120 agonists for the treatment of type II diabetes” (Janssen Pharmaceutica NV, priority 2014, dated 2015)

Experiments:
Assay type in all cases: cell-based
[1] = target: T1, short form of the GPR120 receptor (GPR120S) (Homo sapiens, UniProt Q5NUL3); experiment: Human GPR120 DiscoveRx PathHunter Beta-Arrestin assay, Procedure β-arrestin B; conditions: PathHunter CHO-K1 GPR120S β-Arrestin cell line, 5000 cells/well, read-out: hGPR120 β-arrestin B EC50
T1 construct: host or cells: PathHunter CHO-K1 GPR120S β-Arrestin Cell Line
How it was run: (§1)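 PathHunter CHO-K1 β-arrestin cells expressed long-form GPR120 (Procedure A, 3000 cells/well) or short-form GPR120 (Procedure B, 5000 cells/well). Compounds were serially diluted from 25 µM and incubated 90 min at 37 °C in HBSS/20 mM HEPES/0.1% BSA, pH 7.4. Luminescence was read after 60 min detection at RT; EC50 comes from % activity versus positive control, Hill slope fixed at 1.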

Human GPR120 short form = target: T2, Human GPR120 short form (Homo sapiens, UniProt Q5NUL3); experiment: Human GPR120 calcium flux assay (FLIPR), Procedure Calcium B; conditions: HEK-293 cells expressing human GPR120 short form, 4200 cells/well; read-out: GPR120 Ca2+ Assay B EC50
T2 construct: expressed in transfected cells
T2 sequence (Q5NUL3 1-361): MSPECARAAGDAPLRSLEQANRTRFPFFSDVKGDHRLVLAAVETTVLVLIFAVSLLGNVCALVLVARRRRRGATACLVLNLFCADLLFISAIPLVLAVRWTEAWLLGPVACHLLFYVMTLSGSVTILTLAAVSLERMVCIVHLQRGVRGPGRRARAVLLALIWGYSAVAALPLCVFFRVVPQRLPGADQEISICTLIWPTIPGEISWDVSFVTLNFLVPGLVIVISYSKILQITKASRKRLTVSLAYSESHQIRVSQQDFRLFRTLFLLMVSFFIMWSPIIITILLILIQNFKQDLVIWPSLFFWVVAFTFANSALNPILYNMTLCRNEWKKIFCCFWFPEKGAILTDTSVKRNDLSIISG
Text: This in vitro assay serves to assess test compound agonist activity against the short splice variant (SVS with Accession number NM_001195755.1 confirmed by sequencing data) of the GPR120 receptor. The Human Short splice variant #2 (NM_001195755.1) is missing an in-frame coding exon compared to variant 1 (the Human Long splice variant NM_181745.3), resulting in a shorter isoform (GPR120-S) lacking a 16 aa protein segment compared to isoform GPR120-L. The assay platform utilizes HEK-293 cells stably transfected to express the Human GPR120 short form. These cells are first loaded with the Ca^+2 sensitive dye, Fluo-4 NW. Upon stimulation, intracellular released Ca^+2 can bind to the dye and alter its fluorescence intensity. This increase in fluorescence signal, and thus the flux in intracellular [Ca^2+], is detected and quantitated by fluorescence imaging using a FLIPR reader. The effect of the agonist is measured as a function of concentration and used to calculate an EC50 based upon a response curve.
In this procedure 4200 cells/well were employed.
A Human GPR120 clone (Genbank accession number NM_001195755.1) was placed into the pcDNA3.1 mammalian expression vector carrying the neomycin resistance gene. A stable mammalian cell was generated by placing the above clone into a HEK293 background. Clonal cells responding to long chain fatty acids had expression levels of GPR120 confirmed by RT-qPCR. Human HEK-GPR120 cells were cultured in Dulbecco's Modified Eagle's Medium (DMEM)/F12 medium supplemented with 10% fetal bovine serum (FBS), 1% L-Glutamine and 1% penicillin/streptomycin and 0.5 mg/ml G-418. Cells were split 2 times a week to keep the cells in the log-phase growth.
In preparation for the assay, HEK cells stably transfected with Human GPR120 (2.5K cells per well in 25 uL growth medium) were seeded into 384-well plates and then incubated overnight (37° C., 5% CO2). The next day, the media was changed to 20 μL assay buffer and the cell starved for 1 h at 37° C. The dye loading solution (2× dye) was prepared using 10 mL assay buffer, 100 μL of 250 mM probenecid, 1 bottle of Component A, and 20 μl of dye in DMSO. Twenty μL of the 2× dye loading buffer was then added to each well. The plates were incubated at 37° C. for 30 min, then at room temperature for an additional 15 minutes, before performing the assay on FLIPR. Test compounds were prepared in assay buffer (2 uL of cpd+198 uL assay buffer, final DMSO in assay plate is 0.2%) at the desired concentration, more particularly at 100, 50, 25, 12.5, 6.25, 3.125, 1.562, 0.781, 0.391, 0.195, 0.098, 0.049, 0.024 and 0.012 μM.
The assay was performed on a FLIPR plate reader using the following parameters. Baseline was read for 10 seconds at 1 sec intervals. The program was set to transfer 10 μL of ligand from compound plate to cell plate after baseline reading. Aspiration was executed at: 10 μL/sec speed, 4.6 μL height; Dispensing was executed at: 30 μL/sec speed, 45 μL height. After compound addition, each well was read for 300 sec, with measurements collected at 1 sec intervals.
The kinetic data from the FLIPR was based upon a 5 minute window for data collection. The fluorescence of each sample well was used for individual calculations of a normalized RFU value, which was defined as maximum response minus the minimum response. The normalized fluorescence reading (RFU) was calculated as follows: RFU=Fmax−Fmin The data were fitted to a sigmoidal dose-response curve with a variable Hill slope (<2) using nonlinear regression with GraphPad Prism 5.0 to calculate the EC50 values. The Fitting Equation was: Y=Bottom+(Top−Bottom)/(1+10^((Log EC50−X)*HillSlope)), where X is the log of the concentration and Y is the response.

[2] = target: T3, long form of human GPR120 (Homo sapiens, UniProt Q5NUL3); experiment: Human GPR120 DiscoveRx PathHunter Beta-Arrestin assay, Procedure β-arrestin A; conditions: PathHunter CHO-K1 GPR120 β-Arrestin cell line, 3000 cells per well, read-out: hGPR120 β-arrestin A EC50
T3 construct: host or cells: PathHunter CHO-K1 GPR120 β-Arrestin Cell Line
How it was run: as §1

T1 sequence (P32121 whole entry partner, one chain of several): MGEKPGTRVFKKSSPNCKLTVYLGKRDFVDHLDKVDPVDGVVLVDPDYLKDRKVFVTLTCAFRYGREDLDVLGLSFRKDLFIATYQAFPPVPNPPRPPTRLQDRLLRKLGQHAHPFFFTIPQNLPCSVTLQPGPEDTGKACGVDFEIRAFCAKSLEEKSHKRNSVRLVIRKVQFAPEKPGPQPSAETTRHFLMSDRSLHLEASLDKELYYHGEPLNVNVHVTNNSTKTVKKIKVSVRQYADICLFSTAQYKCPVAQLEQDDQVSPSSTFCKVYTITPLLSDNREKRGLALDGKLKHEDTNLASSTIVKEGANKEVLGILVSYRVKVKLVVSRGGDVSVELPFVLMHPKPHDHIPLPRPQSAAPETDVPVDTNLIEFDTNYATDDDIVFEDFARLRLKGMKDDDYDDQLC
T3 sequence (Q5NUL3 1-377 isoform Q5NUL3-1): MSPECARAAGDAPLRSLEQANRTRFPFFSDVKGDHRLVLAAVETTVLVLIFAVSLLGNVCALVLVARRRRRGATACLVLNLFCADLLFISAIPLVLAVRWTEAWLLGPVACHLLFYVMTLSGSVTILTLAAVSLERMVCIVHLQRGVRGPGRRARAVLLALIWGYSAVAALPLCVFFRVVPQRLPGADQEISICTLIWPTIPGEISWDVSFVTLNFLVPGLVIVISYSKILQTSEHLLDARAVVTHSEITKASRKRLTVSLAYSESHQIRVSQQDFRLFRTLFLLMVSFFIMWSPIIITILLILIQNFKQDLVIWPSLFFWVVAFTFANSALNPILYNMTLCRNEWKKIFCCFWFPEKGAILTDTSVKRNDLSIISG
T3 sequence (P32121 whole entry partner): as the sequence (P32121 whole entry partner, one chain of several) above

## Cc1cc(OCc2c(-c3ccc(Cl)cc3)nsc2C(F)(F)F)c(F)cc1CCCO [Cpd 63, 3-(4-((3-(4-chlorophenyl)-5-(trifluoromethyl)isothiazol-4-yl)methoxy)-5-fluoro-2-methylphenyl)propan-1-61]
[1]
  EC50: 122 nM
Human GPR120 short form
  EC50: 200 nM

## CCc1ccc(-c2nsc(C(C)C)c2COc2ccc(CCC(=O)O)c(C)c2C)cc1 [Cpd 64, 3-(4-[[3-(4-ethylphenyl)-5-(propan-2-yl)-1,2-thiazol-4-yl]methoxy]-2,3-dimethylphenyl)propanoic acid]
Human GPR120 short form
  EC50: 923 nM

## Cc1ccc(-c2snc(Cl)c2COc2c(F)cc(CCC(=O)O)cc2F)c(F)c1 [Cpd 252, 3-(4-{[3-Chloro-5-(2-fluoro-4-methylphenyl)isothiazol-4-yl]methoxy}-3,5-difluorophenyl)propanoic acid]
[2]
  EC50: 191 nM
Human GPR120 short form
  EC50: 45 nM

## Cc1ccccc1-c1snc(Cl)c1COc1ccc(CCC(=O)O)c(C(F)(F)F)c1 [Cpd 253, 3-[4-{[3-Chloro-5-(2-methylphenyl)isothiazol-4-yl]methoxy}-2-(trifluoromethyl)phenyl]propanoic acid]
Human GPR120 short form
  EC50: 349 nM

## Cc1ccccc1-c1snc(Cl)c1COc1ccc(CCC(=O)O)cc1 [Cpd 254, 3-(4-{[3-Chloro-5-(2-methylphenyl)isothiazol-4-yl]methoxy}phenyl)propanoic acid]
Human GPR120 short form
  EC50: 401 nM

## Cc1ccc(-c2snc(Cl)c2COc2ccc(CCC(=O)O)cc2)c(C)c1 [Cpd 255, 3-(4-{[3-Chloro-5-(2,4-dimethylphenyl)isothiazol-4-yl]methoxy}phenyl)propanoic acid]
Human GPR120 short form
  EC50: 550 nM

## Cc1ccc(-c2snc(Cl)c2COc2ccc(CCC(=O)O)c(C(F)(F)F)c2)c(C)c1 [Cpd 256, 3-[4-{[3-Chloro-5-(2,4-dimethylphenyl)isothiazol-4-yl]methoxy}-2-(trifluoromethyl)phenyl]propanoic acid]
Human GPR120 short form
  EC50: 986 nM

## Cc1cc(OCc2c(Cl)nsc2-c2ccccc2C)ccc1CCC(=O)O [Cpd 257, 3-(4-{[3-Chloro-5-(2-methylphenyl)isothiazol-4-yl]methoxy}-2-methylphenyl)propanoic acid]
Human GPR120 short form
  EC50: 1060 nM

## COc1cc(OCc2c(Cl)nsc2-c2ccc(C)cc2F)ccc1CCC(=O)O [Cpd 258, 3-(4-{[3-Chloro-5-(2-fluoro-4-methylphenyl)isothiazol-4-yl]methoxy}-2-methoxyphenyl)propanoic acid]
Human GPR120 short form
  EC50: 210 nM

## O=C(O)CCc1ccc(OCc2c(Cl)nsc2-c2ccccc2Cl)cc1C(F)(F)F [Cpd 259, 3-[4-{[3-Chloro-5-(2-chlorophenyl)isothiazol-4-yl]methoxy}-2-(trifluoromethyl)phenyl]propanoic acid]
Human GPR120 short form
  EC50: 261 nM

## COc1ccccc1-c1snc(Cl)c1COc1ccc(CCC(=O)O)c(C(F)(F)F)c1 [Cpd 260, 3-[4-{[3-Chloro-5-(2-methoxyphenyl)isothiazol-4-yl]methoxy}-2-(trifluoromethyl)phenyl]propanoic acid]
Human GPR120 short form
  EC50: 3430 nM

## N#Cc1ccc(-c2nsc(C(F)(F)F)c2COc2c(F)cc(CCC(=O)O)cc2F)cc1 [Cpd 261, 3-(4-{[3-(4-Cyanophenyl)-5-(trifluoromethyl)isothiazol-4-yl]methoxy}-3,5-difluorophenyl)propanoic acid]
[1]
  EC50: 332 nM
Human GPR120 short form
  EC50: 672 nM

## OCCCc1cc(F)c(OCc2c(-c3ccc(Cl)cc3F)nsc2C(F)(F)F)c(F)c1 [Cpd 262, 3-(4-{[3-(4-Chloro-2-fluorophenyl)-5-(trifluoromethyl)isothiazol-4-yl]methoxy}-3,5-difluorophenyl)propan-1-ol]
[1]
  EC50: 80 nM
Human GPR120 short form
  EC50: 139 nM

## Cc1c(CCC(=O)O)ccc(OCc2c(-c3ccc(C#N)cc3)nsc2C(F)(F)F)c1C [Cpd 264, 3-(4-{[3-(4-Cyanophenyl)-5-(trifluoromethyl)isothiazol-4-yl]methoxy}-2,3-dimethylphenyl)propanoic acid]
[1]
  EC50: 667 nM
Human GPR120 short form
  EC50: 379 nM

## CC(Cc1cc(F)c(OCc2c(-c3ncc(Cl)cc3F)nsc2C(F)(F)F)c(F)c1)C(=O)O (stereo not drawn) [Cpd 265, 3-(4-{[3-(5-Chloro-3-fluoropyridin-2-yl)-5-(trifluoromethyl)isothiazol-4-yl]methoxy}-3,5-difluorophenyl)-2-methylpropanoic acid]
[1]
  EC50: 527 nM
Human GPR120 short form
  EC50: 248 nM

## CC(Cc1ccc(OCc2c(-c3ncc(Cl)cc3F)nsc2C(F)(F)F)c(F)c1)C(=O)O (stereo not drawn) [Cpd 266, 3-(4-{[3-(5-Chloro-3-fluoropyridin-2-yl)-5-(trifluoromethyl)isothiazol-4-yl]methoxy}-3-fluorophenyl)-2-methylpropanoic acid]
[1]
  EC50: 982 nM
Human GPR120 short form
  EC50: 289 nM

## COc1ncc(-c2nsc(C(F)(F)F)c2COc2ccc(CCC(=O)O)c(C)c2C)s1 [Cpd 268, 3-(4-{[3-(2-Methoxy-1,3-thiazol-5-yl)-5-(trifluoromethyl)isothiazol-4-yl]methoxy}-2,3-dimethylphenyl)propanoic acid]
[1]
  EC50: 445 nM
Human GPR120 short form
  EC50: 473 nM

## O=C(O)CCc1ccc(OCc2c(-c3ccc(Cl)cc3)nsc2C(F)(F)F)cc1C(F)F [Cpd 274, 3-[4-{[3-(4-Chlorophenyl)-5-(trifluoromethyl)isothiazol-4-yl]methoxy}-2-(difluoromethyl)phenyl]propanoic acid]
Human GPR120 short form
  EC50: 3980 nM

## Cc1cc(OCc2c(-c3ccc(Cl)cc3)nsc2C(F)(F)F)ccc1CCC(=O)O [Cpd 275, 3-(4-{[3-(4-Chlorophenyl)-5-(trifluoromethyl)isothiazol-4-yl]methoxy}-2-methylphenyl)propanoic acid]
Human GPR120 short form
  EC50: 1110 nM

## CC1CC=C(c2snc(Cl)c2COc2ccc(CCC(=O)O)c(C(F)(F)F)c2)CC1 (stereo not drawn) [Cpd 276, 3-[4-{[3-Chloro-5-(4-methylcyclohex-1-en-1-yl)isothiazol-4-yl]methoxy}-2-(trifluoromethyl)phenyl]propanoic acid]
Human GPR120 short form
  EC50: 886 nM

## Cc1ccc(-c2snc(Cl)c2COc2ccc(CCC(=O)O)c(C(C)(F)F)c2)cc1 [Cpd 278, 3-[4-{[3-Chloro-5-(4-methylphenyl)isothiazol-4-yl]methoxy}-2-(1,1-difluoroethyl)phenyl]propanoic acid]
Human GPR120 short form
  EC50: 601 nM

## Cc1ccc(-c2snc(Cl)c2COc2ccc(CCC(=O)O)c(C(C)F)c2)cc1 (stereo not drawn) [Cpd 279, 3-[4-{[3-Chloro-5-(4-methylphenyl)isothiazol-4-yl]methoxy}-2-(1-fluoroethyl)phenyl]propanoic acid]
Human GPR120 short form
  EC50: 755 nM
